PubChem BioAssay AID1963434 (Molecular Pharmacology Branch, DTP, NCI, 2024)

Test system: 755483-174-R-J1-PDC complex spheroid growth, percent test/control
Test: Anticancer human tumor 755483-174-R-J1-PDC patient-derived rhabdomyosarcoma cell line growth inhibition [Asc]
Conditions: for IC50: curve of first compound; for viability, T/C: stronger effect = lower value
Method in brief: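 Tumor cells were grown as complex spheroids with human endothelial cells (HUVEC) and human mesenchymal stem cells as stroma. Agents were tested alone and in combination, in half-log steps down from the clinical Cmax, or from 10 microM where Cmax was unknown.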

[1] = second compound 0.1 µM, first compound 0.0316 µM
[2] = second compound 0.1 µM, first compound 0.1 µM
[3] = second compound 0.1 µM, first compound 0.316 µM
[4] = second compound 0.1 µM, first compound 1 µM
[5] = second compound 0.316 µM, first compound 0.0316 µM
[6] = second compound 0.316 µM, first compound 0.1 µM
[7] = second compound 0.316 µM, first compound 0.316 µM
[8] = second compound 0.316 µM, first compound 1 µM
[9] = second compound 1 µM, first compound 0.0316 µM
[10] = second compound 1 µM, first compound 0.1 µM
[11] = second compound 1 µM, first compound 0.316 µM
[12] = second compound 1 µM, first compound 1 µM
[13] = second compound 3.16 µM, first compound 0.0316 µM
[14] = second compound 3.16 µM, first compound 0.1 µM
[15] = second compound 3.16 µM, first compound 0.316 µM
[16] = second compound 3.16 µM, first compound 1 µM
[17] = second compound 10 µM, first compound 0.0316 µM
[18] = second compound 10 µM, first compound 0.1 µM
[19] = second compound 10 µM, first compound 0.316 µM
[20] = second compound 10 µM, first compound 1 µM
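Note: spheroids exposed to compounds for seven days before readout.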

C#Cc1c(F)ccc2cc(O)cc(-c3ncc4c(N5CC6CCC(C5)N6)nc(OCC56CCCN5CC(F)C6)nc4c3F)c12 (stereo not given) + Cc1c(S(C)(=O)=O)c(-c2cc(F)cc(N3CCN(c4ccc(NS(=O)(=O)c5ccc(NC(CCN6CCC(C(=O)OCCCP(=O)(O)O)CC6)CSc6ccccc6)c(S(=O)(=O)C(F)(F)F)c5)cc4)CC3)c2)c(-c2ccc(Cl)cc2)n1C(C)C
IC50 (second compound 0.1 µM): 1200 nM
IC50 (second compound 0.316 µM): 1280 nM
IC50 (second compound 1 µM): < 31.6 nM
IC50 (second compound 3.16 µM): < 31.6 nM
IC50 (second compound 10 µM): < 31.6 nM
viability, T/C [1]: 60.1%
viability, T/C [2]: 65.8%
viability, T/C [3]: 67.2%
viability, T/C [4]: 47.9%
viability, T/C (second compound 0.1 µM, first compound 3.16 µM): 36.6%
viability, T/C (second compound 0.1 µM, first compound 10 µM): 12.6%
viability, T/C [5]: 49%
viability, T/C [6]: 63.5%
viability, T/C [7]: 47.6%
viability, T/C [8]: 55.4%
viability, T/C (second compound 0.316 µM, first compound 3.16 µM): 35.8%
viability, T/C (second compound 0.316 µM, first compound 10 µM): 10.3%
viability, T/C [9]: 44.9%
viability, T/C [10]: 49.5%
viability, T/C [11]: 39.1%
viability, T/C [12]: 39.1%
viability, T/C (second compound 1 µM, first compound 3.16 µM): 27.3%
viability, T/C (second compound 1 µM, first compound 10 µM): 5.81%
viability, T/C [13]: 42.3%
viability, T/C [14]: 36.8%
viability, T/C [15]: 41.5%
viability, T/C [16]: 33.6%
viability, T/C (second compound 3.16 µM, first compound 3.16 µM): 23.8%
viability, T/C (second compound 3.16 µM, first compound 10 µM): 4.86%
viability, T/C [17]: 37.9%
viability, T/C [18]: 35.3%
viability, T/C [19]: 45.4%
viability, T/C [20]: 35.9%
viability, T/C (second compound 10 µM, first compound 3.16 µM): 20.8%
viability, T/C (second compound 10 µM, first compound 10 µM): 17.5%

CNC(C)C(=O)NC1CN(S(=O)(=O)c2cccc(S(=O)(=O)N3CCC4CCC(C(=O)NC(c5ccccc5)c5ccccc5)N4C(=O)C(NC(=O)C(C)NC)C3)c2)CCC2CCC(C(=O)NC(c3ccccc3)c3ccccc3)N2C1=O (stereo not given) + Cc1c(S(C)(=O)=O)c(-c2cc(F)cc(N3CCN(c4ccc(NS(=O)(=O)c5ccc(NC(CCN6CCC(C(=O)OCCCP(=O)(O)O)CC6)CSc6ccccc6)c(S(=O)(=O)C(F)(F)F)c5)cc4)CC3)c2)c(-c2ccc(Cl)cc2)n1C(C)C
IC50 (second compound 0.1 µM): < 3.16 nM
IC50 (second compound 0.316 µM): < 3.16 nM
IC50 (second compound 1 µM): < 3.16 nM
IC50 (second compound 3.16 µM): < 3.16 nM
IC50 (second compound 10 µM): < 3.16 nM
viability, T/C (second compound 0.1 µM, first compound 0.00316 µM): 27.1%
viability, T/C (second compound 0.1 µM, first compound 0.01 µM): 20%
viability, T/C [1]: 39.1%
viability, T/C [2]: 20.2%
viability, T/C [3]: 13.6%
viability, T/C [4]: 12.2%
viability, T/C (second compound 0.316 µM, first compound 0.00316 µM): 36.2%
viability, T/C (second compound 0.316 µM, first compound 0.01 µM): 24.1%
viability, T/C [5]: 15.8%
viability, T/C [6]: 24.4%
viability, T/C [7]: 14.7%
viability, T/C [8]: 12.1%
viability, T/C (second compound 1 µM, first compound 0.00316 µM): 29.8%
viability, T/C (second compound 1 µM, first compound 0.01 µM): 23.5%
viability, T/C [9]: 18.2%
viability, T/C [10]: 22.5%
viability, T/C [11]: 11.4%
viability, T/C [12]: 10.7%
viability, T/C (second compound 3.16 µM, first compound 0.00316 µM): 23.7%
viability, T/C (second compound 3.16 µM, first compound 0.01 µM): 15.9%
viability, T/C [13]: 16.7%
viability, T/C [14]: 12%
viability, T/C [15]: 9.91%
viability, T/C [16]: 26.8%
viability, T/C (second compound 10 µM, first compound 0.00316 µM): 26.3%
viability, T/C (second compound 10 µM, first compound 0.01 µM): 14.5%
viability, T/C [17]: 16.1%
viability, T/C [18]: 14.2%
viability, T/C [19]: 16.2%
viability, T/C [20]: 7.68%

Cc1nc(N2CCC3(CC2)COC(C)C3N)c(CO)nc1Sc1ccnc(N)c1Cl (stereo not given) + Cc1c(S(C)(=O)=O)c(-c2cc(F)cc(N3CCN(c4ccc(NS(=O)(=O)c5ccc(NC(CCN6CCC(C(=O)OCCCP(=O)(O)O)CC6)CSc6ccccc6)c(S(=O)(=O)C(F)(F)F)c5)cc4)CC3)c2)c(-c2ccc(Cl)cc2)n1C(C)C
IC50 (second compound 0.1 µM): < 9.49 nM
IC50 (second compound 0.316 µM): < 9.49 nM
IC50 (second compound 1 µM): < 9.49 nM
IC50 (second compound 3.16 µM): < 9.49 nM
IC50 (second compound 10 µM): < 9.49 nM
viability, T/C (second compound 0.1 µM, first compound 0.00949 µM): 49.6%
viability, T/C (second compound 0.1 µM, first compound 0.03 µM): 46.2%
viability, T/C (second compound 0.1 µM, first compound 0.0949 µM): 40.3%
viability, T/C (second compound 0.1 µM, first compound 0.3 µM): 26.5%
viability, T/C (second compound 0.1 µM, first compound 0.949 µM): 14.2%
viability, T/C (second compound 0.1 µM, first compound 3 µM): 13.8%
viability, T/C (second compound 0.316 µM, first compound 0.00949 µM): 42.4%
viability, T/C (second compound 0.316 µM, first compound 0.03 µM): 43.5%
viability, T/C (second compound 0.316 µM, first compound 0.0949 µM): 34.6%
viability, T/C (second compound 0.316 µM, first compound 0.3 µM): 23%
viability, T/C (second compound 0.316 µM, first compound 0.949 µM): 12.7%
viability, T/C (second compound 0.316 µM, first compound 3 µM): 9.74%
viability, T/C (second compound 1 µM, first compound 0.00949 µM): 33.5%
viability, T/C (second compound 1 µM, first compound 0.03 µM): 33.9%
viability, T/C (second compound 1 µM, first compound 0.0949 µM): 38.6%
viability, T/C (second compound 1 µM, first compound 0.3 µM): 21.9%
viability, T/C (second compound 1 µM, first compound 0.949 µM): 17.7%
viability, T/C (second compound 1 µM, first compound 3 µM): 10.4%
viability, T/C (second compound 3.16 µM, first compound 0.00949 µM): 26.5%
viability, T/C (second compound 3.16 µM, first compound 0.03 µM): 47.5%
viability, T/C (second compound 3.16 µM, first compound 0.0949 µM): 26.4%
viability, T/C (second compound 3.16 µM, first compound 0.3 µM): 21.2%
viability, T/C (second compound 3.16 µM, first compound 0.949 µM): 16.8%
viability, T/C (second compound 3.16 µM, first compound 3 µM): 10.5%
viability, T/C (second compound 10 µM, first compound 0.00949 µM): 33.3%
viability, T/C (second compound 10 µM, first compound 0.03 µM): 36%
viability, T/C (second compound 10 µM, first compound 0.0949 µM): 25.8%
viability, T/C (second compound 10 µM, first compound 0.3 µM): 23.6%
viability, T/C (second compound 10 µM, first compound 0.949 µM): 9.38%
viability, T/C (second compound 10 µM, first compound 3 µM): 6.34%
